What is called Ki is the dissociation constant of the complex between target and ligand, obtained from inhibition or displacement.

Each structure is given as a SMILES string.

In one test the target is T1, human GlyT1c transporter (Homo sapiens, UniProt P48067).
T1 construct: expressed in transfected cells; host or cells: CHO cells (recombinant; line hGlyT1c_5_CHO is named for the uptake assay)
T1 sequence (P48067 1-706): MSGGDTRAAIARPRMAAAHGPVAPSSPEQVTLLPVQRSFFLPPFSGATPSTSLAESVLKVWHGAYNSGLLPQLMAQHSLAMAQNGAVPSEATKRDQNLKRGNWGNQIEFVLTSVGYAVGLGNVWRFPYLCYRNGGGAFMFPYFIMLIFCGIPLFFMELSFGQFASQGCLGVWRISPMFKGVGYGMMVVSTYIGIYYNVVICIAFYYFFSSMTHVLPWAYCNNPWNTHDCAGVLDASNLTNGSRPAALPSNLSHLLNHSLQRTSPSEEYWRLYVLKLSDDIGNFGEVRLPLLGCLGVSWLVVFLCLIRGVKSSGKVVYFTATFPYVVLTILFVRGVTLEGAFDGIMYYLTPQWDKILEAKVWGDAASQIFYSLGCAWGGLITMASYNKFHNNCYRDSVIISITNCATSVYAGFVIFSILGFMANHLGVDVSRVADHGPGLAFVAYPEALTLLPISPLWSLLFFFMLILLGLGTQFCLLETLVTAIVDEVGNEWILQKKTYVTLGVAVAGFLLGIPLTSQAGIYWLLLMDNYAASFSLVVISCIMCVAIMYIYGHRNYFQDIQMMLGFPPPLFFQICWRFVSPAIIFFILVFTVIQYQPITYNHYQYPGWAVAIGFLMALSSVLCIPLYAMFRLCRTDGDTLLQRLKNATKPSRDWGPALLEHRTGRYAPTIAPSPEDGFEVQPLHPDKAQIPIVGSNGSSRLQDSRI
Nature of the test: Radioligand binding assay using recombinant CHO cell membranes expressing human GlyT1. Conditions: radioligand binding to human GlyT1c transporter-expressing membranes. An excerpt: 2. Radioligand binding assays using recombinant CHO cell membranes expressing human GlyT1: […]
Consider `Cn1cnc(S(=O)(=O)N2C[C@@H](Nc3ccc(F)c(F)c3)[C@H](c3ccccc3)C2)c1` (relative stereo) [Example 216, trans-N-(3,4-difluorophenyl)-1-[(1-methyl-1H-imidazol-4-yl)sulfonyl]-4-phenylpyrrolidin-3-amine], for which the inhibition constant Ki is at most 1000 nM.

Regarding `Cn1cnc(S(=O)(=O)N2C[C@@H](Nc3ccc(F)c(Cl)c3)[C@H](c3ccc(F)cc3)C2)c1` (relative stereo) [Example 160, trans-N-(3-chloro-4-fluorophenyl)-4-(4-fluorophenyl)-1-[(1-methyl-1H-imidazol-4-yl)sulfonyl]pyrrolidin-3-amine], the Ki was at most 10 nM.

As for `Cn1cnc(S(=O)(=O)N2C[C@@H](Nc3ccccn3)[C@H](c3ccccc3)C2)c1` (relative stereo) [Example 207, N-{trans-1-[(1-methyl-1H-imidazol-4-yl)sulfonyl]-4-phenylpyrrolidin-3-yl}pyridin-2-amine], the Ki was at most 10000 nM.

In the case of `COCC1(CN[C@H]2CN(S(=O)(=O)c3cn(C)cn3)C[C@@H]2c2ccccc2)CC1` [Example 590, (3R,4S)-N-{[1-(methoxymethyl)cyclopropyl]methyl}-1-[(1-methyl-1H-imidazol-4-yl)sulfonyl]-4-phenylpyrrolidin-3-amine], the Ki is at most 10000 nM.

`Cn1cnc(S(=O)(=O)N2C[C@H](Nc3ccc4c(c3)C(C)(C)CCO4)[C@@H](c3ccc(F)cc3)C2)c1` [Example 672, (3R,4S)-N-(4,4-dimethyl-3,4-dihydro-2H-chromen-6-yl)-4-(4-fluorophenyl)-1-[(1-methyl-1H-imidazol-4-yl)sulfonyl]pyrrolidin-3-amine]: the inhibition constant Ki was at most 1000 nM.

On to `CCC/C=C/CN[C@H]1CN(S(=O)(=O)c2cn(C)cn2)C[C@@H]1c1ccccc1` [Example 547, (3R,4S)-N-[(2E)-hex-2-en-1-yl]-1-[(1-methyl-1H-imidazol-4-yl)sulfonyl]-4-phenylpyrrolidin-3-amine], for which the Ki was at most 100 nM.

As to `Cc1ccc(C#N)cc1N[C@@H]1CN(S(=O)(=O)c2cn(C)cn2)C[C@H]1c1ccccc1` (relative stereo) [Example 82, 4-methyl-3-({trans-1-[(1-methyl-1H-imidazol-4-yl)sulfonyl]-4-phenylpyrrolidin-3-yl}amino)benzonitrile], the Ki is at most 10000 nM.

As for `Cn1cnc(S(=O)(=O)N2C[C@@H](Nc3cccc(F)c3)[C@H](c3ccccc3)C2)c1` (relative stereo) [Example 70, trans-N-(3-fluorophenyl)-1-[(1-methyl-1H-imidazol-4-yl)sulfonyl]-4-phenylpyrrolidin-3-amine], the inhibition constant Ki is at most 1000 nM.

Take `Cn1cnc(S(=O)(=O)N2C[C@@H](NCc3cccc(Cl)c3)[C@H](c3ccc(F)cc3)C2)c1` (relative stereo) [Example 261, trans-N-(3-chlorobenzyl)-4-(4-fluorophenyl)-1-[(1-methyl-1H-imidazol-4-yl)sulfonyl]pyrrolidin-3-amine]: the Ki was at most 1000 nM.

For `Cn1cnc(S(=O)(=O)N2C[C@@H](NCc3cccnc3)[C@H](c3ccc(F)cc3)C2)c1` (relative stereo) [Example 269, trans-4-(4-fluorophenyl)-1-[(1-methyl-1H-imidazol-4-yl)sulfonyl]-N-(pyridin-3-ylmethyl)pyrrolidin-3-amine], the inhibitory constant (Ki) was at most 10000 nM.

Consider `Cn1cnc(S(=O)(=O)N2C[C@H](NC(=O)COc3ccc(F)cc3)[C@@H](c3ccc(F)cc3)C2)c1` [Example 644, 2-(4-fluorophenoxy)-N-{(3R,4S)-4-(4-fluorophenyl)-1-[(1-methyl-1H-imidazol-4-yl)sulfonyl]pyrrolidin-3-yl}acetamide], for which the Ki is at most 10000 nM.

As for `Cn1cnc(S(=O)(=O)N2C[C@@H](C(=O)Nc3ccc(F)c(C(F)(F)F)c3)[C@H](c3ccc(F)cc3)C2)c1` (relative stereo) [Example 274, trans-4-(4-fluorophenyl)-N-[4-fluoro-3-(trifluoromethyl)phenyl]-1-[(1-methyl-1H-imidazol-4-yl)sulfonyl]pyrrolidine-3-carboxamide], the Ki is at most 100 nM.

Consider `Cn1cnc(S(=O)(=O)N2C[C@H](Nc3ccc(C(F)(F)F)c(C(F)(F)F)c3)[C@@H](c3ccccc3)C2)c1` [Example 656, (3R,4S)-N-[3,4-bis(trifluoromethyl)phenyl]-1-[(1-methyl-1H-imidazol-4-yl)sulfonyl]-4-phenylpyrrolidin-3-amine], for which the Ki is at most 1000 nM.

On to `Cn1cnc(S(=O)(=O)N2C[C@H](NCc3ccc(C4CCCCO4)s3)[C@@H](c3ccccc3)C2)c1` (stereo partly drawn) [Example 558, (3R,4S)-1-[(1-methyl-1H-imidazol-4-yl)sulfonyl]-4-phenyl-N-{[5-(tetrahydro-2H-pyran-2-yl)thiophen-2-yl]methyl}pyrrolidin-3-amine], for which the Ki is at most 10000 nM.

Consider `Cn1cnc(S(=O)(=O)N2C[C@@H](NC(=O)c3cccc(Cl)c3)[C@H](c3ccccc3)C2)c1` (relative stereo) [Example 15, 3-chloro-N-{trans-1-[(1-methyl-1H-imidazol-4-yl)sulfonyl]-4-phenylpyrrolidin-3-yl}benzamide], for which the Ki was at most 10000 nM.

On to `Cc1ncc(S(=O)(=O)N2C[C@H](Nc3ccc(F)c(C(F)(F)F)c3)[C@@H](c3ccc(F)cc3)C2)n1C` [Example 758, (3R,4S)-1-[(1,2-dimethyl-1H-imidazol-5-yl)sulfonyl]-4-(4-fluorophenyl)-N-[4-fluoro-3-(trifluoromethyl)phenyl]pyrrolidin-3-amine], for which the Ki was at most 10000 nM.

For the molecule `Cn1cnc(S(=O)(=O)N2C[C@@H](COc3cc(C(F)(F)F)ccn3)[C@H](c3ccc(F)cc3)C2)c1` (relative stereo) [Example 346, 2-({Trans-4-(4-fluorophenyl)-1-[(1-methyl-1H-imidazol-4-yl)sulfonyl]pyrrolidin-3-yl}methoxy)-4-(trifluoromethyl)pyridine], the inhibitory constant (Ki) is at most 1000 nM.

Regarding `Cn1cnc(S(=O)(=O)N2CC(c3ccc(F)cc3)C(c3ccc(Cl)cc3)C2)c1` (stereo not drawn) [Example 340, 4-{[3-(4-chlorophenyl)-4-(4-fluorophenyl)pyrrolidin-1-yl]sulfonyl}-1-methyl-1H-imidazole], the inhibition constant (Ki) is at most 1000 nM.

On to `Cn1cnc(S(=O)(=O)N2C[C@@H](CNc3ccc(C(F)(F)F)cc3Cl)[C@H](c3ccc(F)cc3)C2)c1` (relative stereo) [Example 332, 2-Chloro-N-({trans-4-(4-fluorophenyl)-1-[(1-methyl-1H-imidazol-4-yl)sulfonyl]pyrrolidin-3-yl}methyl)-4-(trifluoromethyl)aniline], for which the Ki is at most 100 nM.

On to `Cn1cnc(S(=O)(=O)N2C[C@@H](COc3ccc(C(F)(F)F)cc3Cl)[C@H](c3ccc(F)cc3)C2)c1` (relative stereo) [Example 294, 4-{[trans-3-{[2-chloro-4-(trifluoromethyl)phenoxy]methyl}-4-(4-fluorophenyl)pyrrolidin-1-yl]sulfonyl}-1-methyl-1H-imidazole], for which the inhibition constant Ki is at most 10 nM.

The test is the same for the next values; noted with them: radioligand binding, recombinant CHO cell membranes expressing human GlyT1c.
Consider `Cc1cc(N[C@@H]2CN(S(=O)(=O)c3cn(C)cn3)C[C@H]2C2CCCO2)ncc1F` (relative stereo) [Example 851, 5-Fluoro-4-methyl-N-[trans-1-[(1-methyl-1H-imidazol-4-yl)sulfonyl]-4-(tetrahydrofuran-2-yl)pyrrolidin-3-yl]pyridin-2-amine], for which the Ki was at most 10000 nM.

The values are drawn from EP2970215B1, “PYRROLIDINE DERIVATIVES, PHARMACEUTICAL COMPOSITIONS CONTAINING THEM, AND THEIR USE IN THERAPY” (AbbVie Deutschland GmbH & Co. KG, priority 2013, dated 2014).
